Four molecules from publication PMC8297771 (PLoS Pathogens, 2021) can be followed below.

Like-named read-outs stand apart in the source and are kept apart here. Where only a bound is given, the exact number is not on record here.

In series [1] the test system is HIV-1_89.6. The series is described as follows: In vitro anti-viral assay in CEMx174 cells (p24). It counts as cell-based. As to conditions: HIV-1 89.6 / CEMx174 cells; read-out: IC50. As for the experimental part: (§1) CEMx174 cells were infected with HIV-1 primary isolate 89.6 (From infectious clone p89.6, NIH AIDS Reagent Program) at approximately at 10% of cell population determined by FACS analyses. To determine antiviral activity during virus production, STP0404 was added at concentration in the range of 0.1 nM—10 μM during media exchange at 4 hrs post-infection. DMSO was used as a negative control. Cell-free supernatants were measured for p24 antigen production, 5 days post-infection. The anti-HIV-1 efficacy of the two enantiomers of STP0404 were also determined by using the same protocol. All assays were conducted in triplicates. The IC50 values were computed using GraphPad Prism (Version 9) and presented as means ± S.D. of the triplicates. For SIVmac239, CEMx174 cells were infected with viral supernatant containing SIVmac293 at 50,000 TCID50/mL (kind gift from Dr. G. Silvestri, Emory Yerkes National Primate Research Center) with 100 μL/10^6 cells at varying concentrations of STP0404, BI224436, and Raltegravir, and the same above protocol was followed except for that p27 capsid antigen content was measured daily for 5 days post infection.

Series [2] has as its system HIV-1NL4-3. The experiment in a line: In vitro anti-viral assay in human PBMCs (RT activity readout). As to conditions: for TI (TC50 / IC50): minimal TI from IC50 and 10 μM. The class given is cell-based. As for the experimental part: (§2) For the assay with human PBMCs, PHA stimulated cells from at least two pooled healthy were infected with HIV-1 strains in 96-well plates. Test drug dilutions, which were prepared at a 2X concentration in microtiter tubes and 100 μL of each concentration (nine total concentrations), were placed in appropriate wells using the standard format. 50 μL of a predetermined dilution of virus stock was placed in each test well (final MOI ≅ 0.1). The PBMC cultures were maintained for 7 days following infection at 37 °C, 5% CO2. After this period, cell-free supernatant samples were collected for analysis of reverse transcriptase (RT) activity. All assays were conducted in triplicates. For RT assay, a microtiter plate-based reverse transcriptase (RT) reaction was utilized (Buckheit et al., AIDS Research and Human Retroviruses 7:295–302, 1991). Tritiated thymidine triphosphate (^3H-TTP, 80 Ci/mmol, NEN) is received in 1:1 dH2O: Ethanol at 1 mCi/mL. Poly rA:oligo dT template:primer (GE Healthcare) was prepared as a stock solution by combining 150 μL poly rA (20 mg/mL) with 0.5 mL oligo dT (20 units/mL) and 5.35 mL sterile dH2O followed by aliquoting (1.0 mL) and storage at—20°C. The RT reaction buffer was prepared fresh on a daily basis and consisted of 125 μL 1.0 M EGTA, 125 μL dH2O, 125 μL 20% Triton X100, 50 μL 1.0 M Tris (pH 7.4), 50 μL 1.0 M DTT, and 40 μL 1.0 M MgCl2. The final reaction mixture was prepared by combining 1 part ^3H-TTP, 4 parts dH2O, 2.5 parts poly rA:oligo dT stock and 2.5 parts reaction buffer. Ten microliters of this reaction mixture were placed in a round bottom microtiter plate and 15 μL of virus containing supernatant is added and mixed. The plate was incubated at 37°C for 60 mins. Following incubation, the reaction volume was spotted onto DE81 filter-mats (Wallac), washed 5 times for 5 mins each in a 5% sodium phosphate buffer or 2X SSC (Life Technologies). Next they were washed 2 times for 1 min each in distilled water, 2 times for 1 min each in 70% ethanol, and then dried. Incorporated radioactivity (counts per min, CPM) was quantified using standard liquid scintillation techniques. These PBMC analysis was conducted by fee to service through Southern Research Institute (Frederick, MD, USA). The IC50 were analyzed using GraphPad Prism (Version 9) and presented as means ± S.D. of the triplicates.

Series [3] has as its system MT4 cells. The series is described as follows: Tissue culture cytotoxicity measurement in MT4 cells. The class given is cell-based. The source says:
Fig 1 ALLINI structures and STP0404 activities. […] Pyridine-based KF116, D. Pyrrolopyridine-based STP0404. The conserved chemical moiety containing tert-butoxy and carboxylic acid groups are marked by “]”.

The test system of series [4] is Ral-resistant (8070_1) clinical isolate. The experiment in a line: In vitro anti-viral assay in human PBMCs (RT activity readout). It counts as cell-based, HIV-1. As to conditions: for TI (TC50 / IC50): human PBMCs, Ral-resistant (8070_1). As for the experimental part: as §2
The subject of series [5] is Ral-resistant (1556_1) clinical isolate. Described as above. The class given is cell-based, HIV-1. As for the experimental part:
as §2

Series [6] concerns Ral-resistant (4736_2) clinical isolate. Described as above. The class given is cell-based, HIV-1. As for the experimental part: as §2
Series [7] relates to Ral-resistant (4736_4) clinical isolate. The series is described as above. It counts as cell-based, HIV-1. How it is done: as §2
Series [8] relates to Ral-resistant (8070_2) clinical isolate. The series is described as above. It counts as cell-based, HIV-1. As for the experimental part: as §2
The subject of series [9] is human PBMCs. The experiment in a line: Tissue culture cytotoxicity measurement in human PBMCs. It counts as cell-based. As to conditions: human PBMCs. From the text: Multiple chemical scaffolds such as quinoline (BI224436, Fig 1A), benzothiazole (GS-9822, Fig 1B) and pyridine (KF116, Fig 1C) were previously explored for the discovery of ALLINIs. Here, we employed the pyrrolopyridine-based scaffold to synthesize an ALLINI candidate compound, STP0404 (Fig 1D). STP0404 harbors the tert-butoxy moiety that is common to other ALLINIs (Fig 1). First, we measured its in vitro anti-HIV-1 efficacy and cytotoxicity using various HIV-1 strains in multiple cell types, with cytotoxicity initially tested up to 10 μM (Table 1). […] The calculated in vitro minimum therapeutic index (TI) of STP0404 under these conditions was accordingly >25,000. For comparison, we employed two FDA-approved HIV-1 inhibitors, AZT (RT inhibitor) and Raltegravir (Ral, INSTI), alongside 5 different Ral-resistant clinical isolates (Table 1).

Series [10] deals with HIV-1 NL4-3. The series is described as follows: In vitro anti-viral assay in MT4 cells. The class given is cell-based.
Series [11] has as its system SIVmac239. The experiment in a line: In vitro efficacy test against SIVmac239 in CEMx174 cells (p27). It counts as cell-based, SIV. As to conditions: p27 assay. How it is done: as §1, with “The IC50 values were computed using GraphPad Prism (Version 9) and presented as means ± S.D. of the triplicates.” left out
Supplementary file ppat.1009671.s004.tiff: S1 Fig In vitro efficacy tests of STP0404, BI224436 and Raltegravir against SIVmac239 in CEMx174 cell culture. CEMx174 cells were infected with SIVmac239 with various concentrations of STP0404, BI224436, and Raltegravir, and the viral production was determined by p27 assay at 5 days post infection. […]

The test system of series [12] is HIV-1_89.6 passage 14 viral population (Y99H and A128T). The series is described as follows: Susceptibility of STP0404-selected viral population, passage 14, in CEMx174 cells. It counts as cell-based. As to conditions: passage 14 viral population (Y99H and A128T) vs wild type HIV-1_89.6. As for the experimental part: CEM x174 cells infected with HIV primary isolate 89.6 were cultured in the presence of STP0404 at the concentration of IC90 determined earlier. At each passage, cells from original culture in the presence of inhibitor (0.75x10^6 cells) were mixed with equal amount of no-drug control cells to propagate, and viral replication was monitored by the production of p24 antigen in the supernatant. […] The population of drug-induced mutations at each passage mentioned above was determined by sequencing of at least 10 resulting transformants.
CEM x174 cells were infected with cell-free viral supernatant collected during virus resistance assays above. […] The viral stocks were normalized by the amount of p24 capsid antigen, determined to infect CEMx174 cells at approximately 10% of populations (10,000 pg / 10^6 cells). […] Cell-free supernatants were measured for p24 antigen production 5 days post-infection. p89.6 plasmid was applied for Quickchange kit (Invitrogen) to create Y99H single, A128T single, Y99H/A128T double mutants as well as two natural variants (A124N and T125A), and these 89.6 variant viruses were generated by transfecting 293T cells and culturing the produced viruses in CEMx174 cells. The IC50 of STP0404 against respective viruses were analyzed using GraphPad Prism (Version 9) and presented as means ± S.D. of triplicates. […]

The mark [13] stands for this setting: column under Ral-resistant (1556_1).
Where [14] appears, read: column under Ral-resistant (4736_2).
[15] abbreviates: column under Ral-resistant (4736_4).
Where [16] appears, read: column under Ral-resistant (8070_1).
Where [17] appears, read: column under Ral-resistant (8070_2).
[18] abbreviates: Human immunodeficiency virus 1, PBMC.

Take `Cc1nc2c(c(C)c(C)n2Cc2cnn(C)c2)c(-c2ccc(Cl)cc2)c1[C@H](OC(C)(C)C)C(=O)O` [(S) form]: the IC50 in [1] was determined as 1.3 nM.

`Cc1cn([C@H]2C[C@H](N=[N+]=[N-])[C@@H](CO)O2)c(=O)[nH]c1=O` [AZT]: the IC50 amounted to 8.92 ± 2.08 nM in [2] (human PBMCs, NL4-3, mean of triplicates ± SD, read-out: IC50); 9.33 ± 0.22 nM in series [5]; 0.42 ± 0.37 nM in [6] (human PBMCs, Ral-resistant (4736_2), read-out: IC50); 6.71 ± 5.74 nM in series [7] (human PBMCs, Ral-resistant (4736_4), read-out: IC50); 79.9 ± 11.8 nM in series [8]; 56 ± 23.5 nM in series [10] (HIV-1 NL4-3 / MT4 cells, read-out: IC50). The “TI (TC50 / IC50)” value in series [2] (human PBMCs, NL4-3) was >1,121; in series [4] it was >1,490; in [5], >1,000; in [6] (human PBMCs, Ral-resistant (4736_2)) it was >23,000; in series [8], >125; in series [10] (HIV-1 NL4-3 / MT4 cells), > 179. The TC50 in series [3] was > 10,000 nM; in series [9] (NL4-3, tested up to 10 μM) it was >10,000 nM; in series [9] (setting [13]), >10,000 nM; in series [9] (setting [14]) it was >10,000 nM; in series [9] (setting [15]) it was >10,000 nM; in [9] (setting [16]) it was >10,000 nM. The TC50 in series [9] (setting [17]) is listed as >10,000 nM.

In the case of `Cc1nc2ccccc2c(-c2ccc3c4c(ccnc24)CCO3)c1[C@H](OC(C)(C)C)C(=O)O` [BI224436, reference compound], in series [11], the “inhibition of SIVmac239” value was “failed to inhibit”. In series [12], this molecule gave an IC50 fold increase of 40.5 fold.

With `Cc1nnc(C(=O)NC(C)(C)c2nc(C(=O)NCc3ccc(F)cc3)c(O)c(=O)n2C)o1` [Raltegravir], the IC50 in series [2] (Human immunodeficiency virus 1, NL43, PBMC) is 0.44 ± 0.74 nM; in series [4] (setting [18]), > 1000 nM; in series [5] (setting [18]), > 500 nM; in series [6] (setting [18]) it was > 50 nM; in series [7] (setting [18]), 36.5 ± 53.6 nM; in series [8] (setting [18]), > 100 nM. This molecule also came in with an IC50 in series [10] (Human immunodeficiency virus 1, NL43, MT4) of 3.69 ± 2.8 nM. For the same molecule, the “TI (TC50 / IC50)” value in [2] (human PBMCs, NL4-3) was >22,700; in series [4] it was ~10; in series [5], ~20; in series [7] (human PBMCs, Ral-resistant (4736_4)), >270; in series [8] it was ~100; in series [10] (HIV-1 NL4-3 / MT4 cells) it was > 2,710. In addition, the TC50 in series [3] is reported as > 10,000 nM; in series [9] (NL4-3, tested up to 10 μM) it was >10,000 nM; in series [9] (setting [13]), >10,000 nM; in series [9] (setting [14]) it was >10,000 nM; in [9] (setting [15]) it was >10,000 nM; in series [9] (setting [16]), >10,000 nM. For the same molecule, the TC50 in series [9] (setting [17]) is reported as >10,000 nM.

A word on the IC50: it is the concentration that gives 50% inhibition.
